The nature of series [1]: Permeability on Caco-2 cells monolayers. The class given is in vitro ADME. To be noted: human, with Elacridar 10 µM (PgP inhibitor), Papp A>B with PgP inhibitor Elacridar, 10 μM compound, read-out: Passive Permeability. Here is the method:
Even more advantageously, the compounds of formula (I) of the present invention are also endowed with a good permeability profile that, in its turn, can ensure a suitable bioavailability for an oral administration. The permeability was assessed in human Caco 2 cell line, an in vitro model that mimic human gastrointestinal barrier and so useful to predic oral absorption.
The permeability of the compounds of the present invention was evaluated performing the assay on Caco-2 cells monolayers (human colon adenocarcinoma immortalized cell) by measuring the transport of compound (absorption and secretion) in both directions: apical to basolateral direction (A>B) and basolateral to apical (B>A) with and without PgP inhibitor (Elacridar).
The cells, purched from ReadyCell in 96 well format (Cod. KRECE-CCR50), were cultured by the supplier for 21 day on transwell supports in DMEM 1 g/L glucose culture medium supplemented with Fetal Bovin Sierum (10%), Glutamine 200 mM (1%) and Penicillin 10000 U/ml-10 mg/ml Streptomycin (1%).
On day 21 of colture, cell monolayers integrity was verified by measuring the trans-epithelial electric resistance (TEER) using the EVOM equipment (Endohm, WPI, Germany) and studying the apparent permeability (Papp) of reference compounds (Sulpiride and Metoprolol). Furthermore, as a control, the Talinolol 10 uM (Pgp efflux substrate) with and without Elacridar in both directions was used.
The sample solution was prepared dissolving test compound in DMSO at the concentration of 10 mM and then diluted in the Assay Buffer (Hank's Balance Salt Solution) warmed at 37° C. before use, to give the 10 μM Compound working solution with and without 10 μM Elacridar. These working solutions were added to donor compartment (apical for A>B direction and basolateral for B>A direction) and Assay Buffer (Hank's Balance Salt Solution) to the receiver compartment (basolateral for A>B direction and apical for B>A direction). The plate was incubated at 37° C. for 120 min, all incubation were conducted in triplicates. At the end of incubation, samples from donor and receiver compartments were collected for HPLC-MS/MS analyses.
The permeability coefficients (Papp) in both directions: apical to basolateral (A>B) and basolateral to apical (B>A) with and without PgP inhibitor (Elacridar) was calculated in nm/sec, using the following equation:
[formula] • where: • Cr=measured concentration in the receiver well at the time t (expressed as IS ratio) • Vr=volume of the receiver well (ml) • t=time (sec) • A=membrane surface area (cm^2) • C0=initial donor concentration • Passive Papp is considered Papp A>B with PgP inhibitor Elacridar.
(Caco-2 cells form a polarised layer with tight junctions and transporters.)

The target of another series is BSEP (Homo sapiens (Human), UniProt O95342). The series can be described thus: BSEP inhibition: biliary clearance of Taurocolic Acid in sandwich-cultured human hepatocytes. Type of series: in vitro ADME. The following applies: 50 μM test compound, 10 μM TCA, human hepatocytes sandwich configuration; for inhibition at 10 min, 50 μM: sandwich-cultured cryopreserved human hepatocytes, probe Taurocolic Acid (TCA). Here is the method:
BSEP inhibition was evaluated using human hepatocytes cultured between two layer of collagen (sandwich configuration). In this culture condition, hepatocytes express relevant transporters including BSEP and retain the bile canalicular structure. An inhibition of the biliary clearance of Taurocolic Acid (TCA), a known BSEP substrate, was used to assess BSEP interaction.
BSEP inhibition was evaluated using cryopreserved human hepatocytes (Plateable Cryopreserved Human Hepatocytes, BIOIVT) cultured for 5 day between two layer of collagen (sandwich configuration). In this culture condition, hepatocytes express relevant transporters including BSEP and retain the bile canalicular structure.
On day 5 of culture, hepatic cells are ready for the assay and the biliary clearance of Taurocolic Acid (TCA), a known BSEP substrate, can be estimated in presence and in absence of compound of interest.
The sample solution was prepared dissolving test compound and TCA in DMSO and then diluted in the Assay Buffer: Hank's Balance Salt Solution (HBSS+) warmed at 37° C. before use, to give the 10 μM TCA working solution with and without 50 μM of test compound. Hepatocytes were incubated for 10 minutes with these working solutions allowing TCA to be excreted into bile. At the end of incubation, the working solution was aspirated, and the content of the bile was collected through the addition of HBSS Modified without Ca2+/Mg2+(HBSS−). The presence of Ca2+ in the buffer is required to maintain the integrity of the tight junctions, the diffusional barrier between the canalicular lumen and extracellular space. Instead, incubation of cells in Ca2+-free buffer disrupts the tight junctions and opens the bile canalicular structures, allowing the bile content to be released and collect for HPLC-MS/MS analysis.
The in vitro biliary clearance of TCA incubated with and without test compounds is calculated according to the following formula:
where • Acc. Bile=(TCA amount in HBSS (−) buffer samples (pmol/mg protein)*Volume of each samples (mL))/Protein content per well (mg) • AUC=Incubation time (min)*T0 Concentration. T0 concentration is the initial TCA concentration in the medium.
The inhibition of BSEP was calculated as percentage of inhibition of TCA biliary clearance in presence of compound of interest, according to the following formula: BSEP inhibition %=100−(TCA ClBil with test compound*100)
TCA ClBil without test compound.

For series [2], the target named is human recombinant LPA1 expressed in CHO cells (Homo sapiens (Human), UniProt Q92633). Put plainly: LPA1 antagonist FLIPR calcium assay in CHO-hLPA1 cells. The following applies: range of activity; CHO-hLPA1, LPA EC80, Ca2+ mobilization; read-out: LPA1 IC50. The class given is cell-based. Here is the method: The effectiveness of compounds of the present invention as LPA1 antagonists can be determined at the human recombinant LPA1 expressed in CHO cells, using a FLIPR assay in 384 well format.
CHO-hLPA1 cell lines are cultured in a humidified incubator at 5% CO2 in DMEM/F-12 (1:1) MIXTURE with 2 mM Glutamax, supplemented with 10% of Foetal Bovine Serum, 1 mM Sodium Pyruvate, 11 mM Hepes and 1× Penicillin/Streptomycin. […] Serial dilutions (1:3 or 1:4, 11 points CRC) of compounds are performed in 100% DMSO at 200× the final concentration. […] The final concentration of DMSO in the assay will be 0.5% in each well. Medium is removed by aspiration and cells are then incubated with 30 μl of a loading solution containing 5 μM of the cytoplasmic Ca2+ indicator Cal-520 AM in Assay Buffer containing 2.5 mM probenecid for 30 min at 37° C. incubator (cell loading). The loaded cell plates are transferred into the FLIPR instrument and calcium responses are monitored during the on-line addition protocols. For testing of compounds, after the cell loading, 10 μl/well of 4× antagonists' solution was added onto the cells. After 30 min pre-incubation (at 37° C.), 10 μl/well of 5× concentrated LPA EC80 was added and Ca2+ mobilization responses was followed during the on-line addition protocol. Intracellular peak fluorescence values subtracted by baseline fluorescence are exported and analysed to determine IC50 values, respectively. The calcium response is expressed as percentage of the maximal inhibition of the EC80 agonist response.
The raw data (peak height expressed as relative fluorescence units) are normalized and transformed into “percent of inhibition”. Curve fitting and pIC50 (−LogIC50) estimations are carried out using a four-parameter logistic model using XLfit Software.

Sequence of human recombinant LPA1 expressed in CHO cells (Q92633 whole entry): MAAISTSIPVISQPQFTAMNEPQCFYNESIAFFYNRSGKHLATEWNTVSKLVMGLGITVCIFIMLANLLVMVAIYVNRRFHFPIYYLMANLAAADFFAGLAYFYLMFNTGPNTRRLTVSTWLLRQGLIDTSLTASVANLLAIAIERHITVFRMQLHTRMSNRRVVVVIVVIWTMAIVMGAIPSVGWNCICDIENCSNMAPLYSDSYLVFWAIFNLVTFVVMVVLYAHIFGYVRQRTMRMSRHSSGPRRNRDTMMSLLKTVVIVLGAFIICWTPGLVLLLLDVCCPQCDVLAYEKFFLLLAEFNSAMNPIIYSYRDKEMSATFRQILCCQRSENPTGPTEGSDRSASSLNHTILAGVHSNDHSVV
Sequence of BSEP (O95342 whole entry): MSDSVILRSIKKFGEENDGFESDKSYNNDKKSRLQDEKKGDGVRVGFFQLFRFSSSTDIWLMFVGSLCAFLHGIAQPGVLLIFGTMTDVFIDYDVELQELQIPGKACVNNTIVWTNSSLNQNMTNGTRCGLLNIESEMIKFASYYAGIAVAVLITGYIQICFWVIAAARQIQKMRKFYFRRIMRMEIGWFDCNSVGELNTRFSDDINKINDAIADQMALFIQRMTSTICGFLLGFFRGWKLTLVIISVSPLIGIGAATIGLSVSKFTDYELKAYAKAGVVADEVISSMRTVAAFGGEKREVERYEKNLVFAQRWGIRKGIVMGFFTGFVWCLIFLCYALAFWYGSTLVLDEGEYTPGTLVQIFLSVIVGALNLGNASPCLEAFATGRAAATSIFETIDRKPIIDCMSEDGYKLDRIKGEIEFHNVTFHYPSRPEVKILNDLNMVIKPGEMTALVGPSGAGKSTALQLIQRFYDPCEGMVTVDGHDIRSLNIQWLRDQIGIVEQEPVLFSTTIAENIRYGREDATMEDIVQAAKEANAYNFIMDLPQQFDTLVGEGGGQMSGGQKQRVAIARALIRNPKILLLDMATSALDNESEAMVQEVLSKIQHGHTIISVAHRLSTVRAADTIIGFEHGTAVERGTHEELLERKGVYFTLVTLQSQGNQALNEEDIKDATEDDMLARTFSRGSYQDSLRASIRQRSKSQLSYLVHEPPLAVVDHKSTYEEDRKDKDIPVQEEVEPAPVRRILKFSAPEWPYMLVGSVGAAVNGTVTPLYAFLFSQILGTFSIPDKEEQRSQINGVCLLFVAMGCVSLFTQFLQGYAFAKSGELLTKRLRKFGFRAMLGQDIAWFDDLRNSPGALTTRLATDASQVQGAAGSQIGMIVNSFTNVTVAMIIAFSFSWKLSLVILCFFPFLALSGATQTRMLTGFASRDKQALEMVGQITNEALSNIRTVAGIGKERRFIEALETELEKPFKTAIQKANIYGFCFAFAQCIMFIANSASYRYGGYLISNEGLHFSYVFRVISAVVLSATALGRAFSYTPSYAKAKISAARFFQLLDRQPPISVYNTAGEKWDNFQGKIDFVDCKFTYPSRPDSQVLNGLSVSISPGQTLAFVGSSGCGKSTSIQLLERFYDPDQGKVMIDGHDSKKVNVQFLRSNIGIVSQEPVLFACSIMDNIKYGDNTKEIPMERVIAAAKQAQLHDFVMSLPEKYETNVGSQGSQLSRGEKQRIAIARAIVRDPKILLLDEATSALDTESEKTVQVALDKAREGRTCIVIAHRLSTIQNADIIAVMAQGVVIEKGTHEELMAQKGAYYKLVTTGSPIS

In the case of `Cc1nc(-c2snc(C)c2NC(=O)O[C@H](C)c2ccccc2Cl)ccc1NC(=O)[C@H]1CCCC[C@@H]1C(=O)O` [Example 42, (1S,2S)-2-((6-(4-((((R)-1-(2-chlorophenyl)ethoxy)carbonyl)amino)-3-methylisothiazol-5-yl)-2-methylpyridin-3-yl)carbamoyl)cyclohexane-1-carboxylic acid], in series [1], the Papp at 120 min, 10 µM is at least 1.5 ×10⁻⁶ cm/s.
By inhibition is commonly meant the change of the read-out against control, counted positive when it falls. Read a high inhibition as a response far below the control. The IC50 is the point on the concentration scale where inhibition reaches its midpoint. In turn, `Cc1nc(-c2nnn(C)c2NC(=O)O[C@H](C)c2ccccc2)ccc1NC(=O)[C@H]1CCCC[C@@H]1C(=O)O` [Example 44, (1S,2S)-2-((2-methyl-6-(1-methyl-5-((((R)-1-phenylethoxy)carbonyl)amino)-1H-1,2,3-triazol-4-yl)pyridin-3-yl)carbamoyl)cyclohexane-1-carboxylic acid] came in with an inhibition at 10 min, 50 μM against BSEP of at most 50%. In series [2], the IC50 was below 50 nM.
In the case of `Cc1noc(-c2ccc(NC(=O)[C@H]3CCCC[C@@H]3C(=O)O)cn2)c1NC(=O)OC(C)c1cccnc1F` (single isomer, unassigned) [Example 18], the inhibition at 10 min, 50 μM against BSEP is at most 50%. Also, the concentration for half-maximal inhibition (IC50) in series [2] is 50 to 250 nM.
As to `C[C@@H](OC(=O)Nc1c(-c2ccc(NC(=O)[C@H]3CCCC[C@@H]3C(=O)O)c(F)n2)nnn1C)c1ccccc1Cl` [Example 53, (1S,2S)-2-((6-(5-((((R)-1-(2-chlorophenyl)ethoxy)carbonyl)amino)-1-methyl-1H-1,2,3-triazol-4-yl)-2-fluoropyridin-3-yl)carbamoyl)cyclohexane-1-carboxylic acid], the inhibition at 10 min, 50 μM on BSEP is at most 50%. The IC50 in series [2] is below 50 nM.
Regarding `Cc1nc(-c2onc(C)c2NC(=O)O[C@H](C)c2nccs2)ccc1NC(=O)[C@H]1CCCC[C@@H]1C(=O)O` [Example 22, (1S,2S)-2-((2-methyl-6-(3-methyl-4-((((R)-1-(thiazol-2-yl)ethoxy)carbonyl)amino)isoxazol-5-yl)pyridin-3-yl)carbamoyl)cyclohexane-1-carboxylic acid], the inhibition at 10 min, 50 μM against BSEP was at most 50%. For the same compound, the half-maximal inhibitory concentration (IC50) in series [2] was 250 to 600 nM.
Take `CCC[C@@H](C)OC(=O)Nc1c(-c2ccc(NC(=O)[C@H]3CCCC[C@@H]3C(=O)O)c(C)n2)nnn1C` [Example 52, (1S,2S)-2-((2-methyl-6-(1-methyl-5-(((((R)-pentan-2-yl)oxy)carbonyl)amino)-1H-1,2,3-triazol-4-yl)pyridin-3-yl)carbamoyl)cyclohexane-1-carboxylic acid]: the inhibition at 10 min, 50 μM against BSEP was at most 50%. The IC50 in series [2] lay in the range of 50 to 250 nM.
For the compound `C[C@@H](OC(=O)Nc1ccsc1-c1ccc(NC(=O)C2CCCCC2C(=O)O)cc1)c1ccccc1Cl` (single isomer, unassigned) [Example 10], the “BSEP Inhibition at 50 μM” value on BSEP is reported as at most 50%. In addition, in series [2], the IC50 was below 50 nM.
`Cc1nc(-c2nnn(C)c2NC(=O)O[C@H](C)c2ccccc2C(F)(F)F)ccc1NC(=O)[C@H]1CCCC[C@@H]1C(=O)O` [Example 45, (1S,2S)-2-((2-methyl-6-(1-methyl-5-((((R)-1-(2-(trifluoromethyl)phenyl)ethoxy)carbonyl)amino)-1H-1,2,3-triazol-4-yl)pyridin-3-yl)carbamoyl)cyclohexane-1-carboxylic acid] returned an inhibition at 10 min, 50 μM against BSEP of at most 50%. The IC50 in series [2] lay in the range of 50 to 250 nM.
Take `Cc1noc(-c2ccc(NC(=O)[C@H]3CCCC[C@@H]3C(=O)O)cn2)c1NC(=O)O[C@H](C)c1cccnc1Cl` [Example 29, (1S,2S)-2-((6-(4-((((R)-1-(2-chloropyridin-3-yl)ethoxy)carbonyl)amino)-3-methylisoxazol-5-yl)pyridin-3-yl)carbamoyl)cyclohexane-1-carboxylic acid]: the inhibition at 10 min, 50 μM on BSEP was at most 50%. In addition, the half-inhibitory concentration (IC50) in series [2] lay in the range of 50 to 250 nM.
At BSEP, `Cc1nc(-c2cnn(C)c2NC(=O)O[C@H](C)c2ccccc2)ccc1NC(=O)[C@H]1CCCC[C@@H]1C(=O)O` [Example 43, (1S,2S)-2-((2-methyl-6-(1-methyl-5-((((R)-1-phenylethoxy)carbonyl)amino)-1H-pyrazol-4-yl)pyridin-3-yl)carbamoyl)cyclohexane-1-carboxylic acid] came in with an inhibition at 10 min, 50 μM of at most 50%. The IC50 in series [2] lay within 50 to 250 nM.
For `Cc1nc(-c2cnn(C)c2NC(=O)O[C@H](C)C2CCCC2)ccc1NC(=O)[C@H]1CCCC[C@@H]1C(=O)O` [Example 51, (1S,2S)-2-((6-(5-((((R)-1-cyclopentylethoxy)carbonyl)amino)-1-methyl-1H-pyrazol-4-yl)-2-methylpyridin-3-yl)carbamoyl)cyclohexane-1-carboxylic acid], the inhibition at 10 min, 50 μM against BSEP was at most 50%. Further, the IC50 in series [2] fell in the range of 250 to 600 nM.
For the compound `CCn1nnc(-c2ccc(NC(=O)[C@H]3CCCC[C@@H]3C(=O)O)c(C)n2)c1NC(=O)O[C@H](C)c1ccccc1Cl` [Example 48, (1S,2S)-2-((6-(5-((((R)-1-(2-chlorophenyl)ethoxy)carbonyl)amino)-1-ethyl-1H-1,2,3-triazol-4-yl)-2-methylpyridin-3-yl)carbamoyl)cyclohexane-1-carboxylic acid], at BSEP, the inhibition at 10 min, 50 μM was at most 50%. Besides, the IC50 in series [2] is below 50 nM.
In the case of `Cc1nc(-c2nnn(C)c2NC(=O)O[C@H](C)c2ccccc2Cl)ccc1NC(=O)[C@H]1CCCC[C@@H]1C(=O)O` [Example 3, (1S,2S)-2-((6-(5-((((R)-1-(2-chlorophenyl)ethoxy)carbonyl)amino)-1-methyl-1H-1,2,3-triazol-4-yl)-2-methylpyridin-3-yl)carbamoyl)cyclohexane-1-carboxylic acid], the inhibition at 10 min, 50 μM against BSEP was at most 50%. The IC50 in series [2] was below 50 nM.
